Measurements from patent publication US9707229B2, “Compositions and methods for treating an infection” (CMPD LICENSING, LLC, priority 2015, dated 2017).

Key:
Format in all cases: cell-based
Bacteroides fragilis = assay: Expected efficacy of antibiotic agents; conditions: Gram: anaer
Citrobacter freundii = assay: Expected efficacy of antibiotic agents; conditions: Gram: neg
Shigella dysenteriae = assay: Expected efficacy of antibiotic agents; conditions: Gram: neg
Citrobacter diversus = assay: Expected efficacy of antibiotic agents; conditions: Gram: neg
[1] = test system: Haemophilus parainfluenzae; assay: Expected efficacy of antibiotic agents; conditions: Gram: neg
Chlamydia pneumoniae = assay: Expected efficacy of antibiotic agents; conditions: Gram: n/a
Shigella boydii = assay: Expected efficacy of antibiotic agents; conditions: Gram: neg
Haemophilus influenzae = assay: Expected efficacy of antibiotic agents; conditions: Gram: neg
Vibrio cholerae = assay: Expected efficacy of antibiotic agents; conditions: Gram: neg
Shigella flexneri = assay: Expected efficacy of antibiotic agents; conditions: Gram: neg
[2] = test system: Methicillin resistant staph aureus (MRSA); assay: Expected efficacy of antibiotic agents; conditions: Gram: pos
Legionella pneumophila = conditions: expected efficacy; Gram: neg
[3] = test system: Staphylococcus epidermidis; assay: Expected efficacy of antibiotic agents; conditions: Gram: pos
Klebsiella oxytoca = assay: Expected efficacy of antibiotic agents; conditions: Gram: neg
Neisseria gonorrhoeae = assay: Expected efficacy of antibiotic agents; conditions: Gram: neg
Corynebacterium jeikeium = assay: Expected efficacy of antibiotic agents; conditions: Gram: pos
Enterococcus faecium = assay: Expected efficacy of antibiotic agents; conditions: Gram: pos
Providencia stuartii = assay: Expected efficacy of antibiotic agents; conditions: Gram: neg
Proteus mirabilis = assay: Expected efficacy of antibiotic agents; conditions: Gram: neg
Providencia rettgeri = assay: Expected efficacy of antibiotic agents; conditions: Gram: neg
Enterobacter aerogenes = assay: Expected efficacy of antibiotic agents; conditions: Gram: neg
Klebsiella pneumoniae = assay: Expected efficacy of antibiotic agents; conditions: Gram: neg
Serratia marcescens = assay: Expected efficacy of antibiotic agents; conditions: Gram: neg
Escherichia coli = assay: Expected efficacy of antibiotic agents; conditions: Gram: neg
Moraxella catarrhalis = assay: Expected efficacy of antibiotic agents; conditions: Gram: neg
Morganella morganii = assay: Expected efficacy of antibiotic agents; conditions: Gram: neg
Bartonella bacilliformis = assay: Expected efficacy of antibiotic agents; conditions: Gram: neg
Pseudomonas fluorescens = assay: Expected efficacy of antibiotic agents; conditions: Gram: neg
Francisella tularensis = conditions: expected efficacy; Gram: neg
Pseudomonas aeruginosa = assay: Expected efficacy of antibiotic agents; conditions: Gram: neg
Rickettsiae = conditions: expected efficacy; Gram: neg
Proteus vulgaris = assay: Expected efficacy of antibiotic agents; conditions: Gram: neg
Campylobacter jejuni = assay: Expected efficacy of antibiotic agents; conditions: Gram: neg
Yersinia pestis = conditions: expected efficacy; Gram: neg
Shigella sonnei = assay: Expected efficacy of antibiotic agents; conditions: Gram: neg
Salmonella typhi = assay: Expected efficacy of antibiotic agents; conditions: Gram: neg
Neisseria meningitidis = assay: Expected efficacy of antibiotic agents; conditions: Gram: neg
Clostridium difficile = assay: Expected efficacy of antibiotic agents; conditions: Gram: anaer
Bordetella pertussis = assay: Expected efficacy of antibiotic agents; conditions: Gram: neg
Mycoplasma pneumoniae = assay: Expected efficacy of antibiotic agents; conditions: Gram: n/a
Acinetobacter lwoffii = assay: Expected efficacy of antibiotic agents; conditions: Gram: neg
Clostridium perfringens = conditions: expected efficacy; Gram: anaer
Enterococcus faecalis = assay: Expected efficacy of antibiotic agents; conditions: Gram: pos
Streptococcus agalactiae = assay: Expected efficacy of antibiotic agents; conditions: Gram: pos
Streptococcus pneumoniae = assay: Expected efficacy of antibiotic agents; conditions: Gram: pos
Acinetobacter baumannii = assay: Expected efficacy of antibiotic agents; conditions: Gram: neg
[4] = test system: Klebsiella (Calymmatobacterium) granulomatis; assay: Expected efficacy of antibiotic agents; conditions: Gram: neg
[5] = test system: Staphylococcus aureus (MSSA); assay: Expected efficacy of antibiotic agents; conditions: Gram: pos
[6] = test system: Acinetobacter calcoaceticus; assay: Expected efficacy of antibiotic agents; conditions: Gram: neg
Streptococcus pyogenes = assay: Expected efficacy of antibiotic agents; conditions: Gram: pos
Brucella species = conditions: expected efficacy; Gram: neg
Enterobacter sakazakii = assay: Expected efficacy of antibiotic agents; conditions: Gram: neg
Chlamydia psittaci = conditions: expected efficacy; Gram: n/a
Enterobacter cloacae = assay: Expected efficacy of antibiotic agents; conditions: Gram: neg
Chlamydia trachomatis = assay: Expected efficacy of antibiotic agents; conditions: Gram: n/a
Candida species = assay: Expected efficacy of antifungal agents
Diphtheroids = assay: Expected efficacy of antibiotic agents; conditions: Gram: pos
Peptostreptococcus = assay: Expected efficacy of antibiotic agents; conditions: Gram: pos
[7] = test system: Viridans group streptococci; assay: Expected efficacy of antibiotic agents; conditions: Gram: pos
Haemophilus ducreyi = assay: Expected efficacy of antibiotic agents; conditions: Gram: neg
[8] = test system: Corynebacterium urealyticum; assay: Expected efficacy of antibiotic agents; conditions: Gram: pos

Structure (SMILES): O=C(O)c1cn(C2CC2)c2cc(N3CCNCC3)c(F)cc2c1=O [Ciprofloxacin]
- efficacy against Bacteroides fragilis (Bacteroides fragilis): no
- efficacy against Citrobacter freundii (Citrobacter freundii): yes
- efficacy against Shigella dysenteriae (Shigella dysenteriae): yes
- efficacy against Citrobacter diversus (Citrobacter diversus): yes
- efficacy against Haemophilus parainfluenzae [1]: yes
- efficacy against Chlamydia pneumoniae (Chlamydia pneumoniae): yes
- efficacy against Shigella boydii (Shigella boydii): yes
- efficacy against Haemophilus influenzae (Haemophilus influenzae): yes
- efficacy against Vibrio cholerae (Vibrio cholerae): yes
- efficacy against Shigella flexneri (Shigella flexneri): yes
- efficacy against Methicillin resistant staph aureus (MRSA) [2]: no
- efficacy against Legionella pneumophila (Legionella pneumophila): yes
- efficacy against Staphylococcus epidermidis [3]: yes
- efficacy against Klebsiella oxytoca (Klebsiella oxytoca): yes
- efficacy against Neisseria gonorrhoeae (Neisseria gonorrhoeae): yes
- efficacy against Corynebacterium jeikeium (Corynebacterium jeikeium): no
- efficacy against Enterococcus faecium (Enterococcus faecium): no
- efficacy against Providencia stuartii (Providencia stuartii): yes
- efficacy against Proteus mirabilis (Proteus mirabilis): yes
- efficacy against Providencia rettgeri (Providencia rettgeri): yes
- efficacy against Enterobacter aerogenes (Enterobacter aerogenes): yes
- efficacy against Klebsiella pneumoniae (Klebsiella pneumoniae): yes
- efficacy against Serratia marcescens (Serratia marcescens): yes
- efficacy against Escherichia coli (Escherichia coli): yes
- efficacy against Moraxella catarrhalis (Moraxella catarrhalis): yes
- efficacy against Morganella morganii (Morganella morganii): yes
- efficacy against Bartonella bacilliformis (Bartonella bacilliformis): yes
- efficacy against Pseudomonas fluorescens (Pseudomonas fluorescens): yes
- efficacy against Francisella tularensis (Francisella tularensis): yes
- efficacy against Pseudomonas aeruginosa (Pseudomonas aeruginosa): yes
- efficacy against Rickettsiae (Rickettsiae): yes
- efficacy against Proteus vulgaris (Proteus vulgaris): yes
- efficacy against Campylobacter jejuni (Campylobacter jejuni): yes
- efficacy against Yersinia pestis (Yersinia pestis): yes
- efficacy against Shigella sonnei (Shigella sonnei): yes
- efficacy against Salmonella typhi (Salmonella typhi): yes
- efficacy against Neisseria meningitidis (Neisseria meningitidis): yes

Structure (SMILES): CC[C@H]1OC(=O)[C@H](C)[C@@H](O[C@H]2C[C@@](C)(OC)[C@@H](O)[C@H](C)O2)[C@H](C)[C@@H](O[C@@H]2O[C@H](C)C[C@H](N(C)C)[C@H]2O)[C@](C)(O)C[C@@H](C)CN(C)[C@H](C)[C@@H](O)[C@]1(C)O [Azithromycin]
- efficacy against Clostridium difficile (Clostridium difficile): no
- efficacy against Bacteroides fragilis (Bacteroides fragilis): no
- efficacy against Citrobacter freundii (Citrobacter freundii): no
- efficacy against Bordetella pertussis (Bordetella pertussis): yes
- efficacy against Citrobacter diversus (Citrobacter diversus): no
- efficacy against Mycoplasma pneumoniae (Mycoplasma pneumoniae): yes
- efficacy against Acinetobacter lwoffii (Acinetobacter lwoffii): no
- efficacy against Chlamydia pneumoniae (Chlamydia pneumoniae): yes
- efficacy against Haemophilus influenzae (Haemophilus influenzae): yes
- efficacy against Clostridium perfringens (Clostridium perfringens): no
- efficacy against Vibrio cholerae (Vibrio cholerae): yes
- efficacy against Methicillin resistant staph aureus (MRSA) [2]: no
- efficacy against Legionella pneumophila (Legionella pneumophila): yes
- efficacy against Enterococcus faecalis (Enterococcus faecalis): no
- efficacy against Staphylococcus epidermidis [3]: yes
- efficacy against Streptococcus agalactiae (Streptococcus agalactiae): yes
- efficacy against Streptococcus pneumoniae (Streptococcus pneumoniae): yes
- efficacy against Klebsiella oxytoca (Klebsiella oxytoca): no
- efficacy against Acinetobacter baumannii (Acinetobacter baumannii): no
- efficacy against Klebsiella (Calymmatobacterium) granulomatis [4]: no
- efficacy against Corynebacterium jeikeium (Corynebacterium jeikeium): no
- efficacy against Enterococcus faecium (Enterococcus faecium): no
- efficacy against Providencia stuartii (Providencia stuartii): no
- efficacy against Staphylococcus aureus (MSSA) [5]: yes
- efficacy against Proteus mirabilis (Proteus mirabilis): no
- efficacy against Providencia rettgeri (Providencia rettgeri): no
- efficacy against Enterobacter aerogenes (Enterobacter aerogenes): no
- efficacy against Acinetobacter calcoaceticus [6]: no
- efficacy against Klebsiella pneumoniae (Klebsiella pneumoniae): no
- efficacy against Serratia marcescens (Serratia marcescens): no
- efficacy against Escherichia coli (Escherichia coli): no
- efficacy against Streptococcus pyogenes (Streptococcus pyogenes): yes
- efficacy against Moraxella catarrhalis (Moraxella catarrhalis): yes
- efficacy against Morganella morganii (Morganella morganii): no
- efficacy against Bartonella bacilliformis (Bartonella bacilliformis): yes
- efficacy against Pseudomonas fluorescens (Pseudomonas fluorescens): no
- efficacy against Brucella species (Brucella species): no
- efficacy against Francisella tularensis (Francisella tularensis): no
- efficacy against Pseudomonas aeruginosa (Pseudomonas aeruginosa): no
- efficacy against Rickettsiae (Rickettsiae): yes
- efficacy against Enterobacter sakazakii (Enterobacter sakazakii): no
- efficacy against Proteus vulgaris (Proteus vulgaris): no
- efficacy against Chlamydia psittaci (Chlamydia psittaci): yes
- efficacy against Enterobacter cloacae (Enterobacter cloacae): no
- efficacy against Campylobacter jejuni (Campylobacter jejuni): yes
- efficacy against Chlamydia trachomatis (Chlamydia trachomatis): yes
- efficacy against Neisseria meningitidis (Neisseria meningitidis): yes

Structure (SMILES): C[C@@H]1[C@H](O)[C@@H](C)/C=C/C=C/CC/C=C/C=C/C=C/C=C/C(O[C@H]2O[C@H](C)[C@@H](O)[C@H](N)[C@@H]2O)CC2O[C@](O)(CC(O)C(O)CCC(O)CC(O)CC(O)CC(=O)O[C@H]1C)CC(O)C2C(=O)O (stereo partly shown) [Nystatin]
- efficacy against Candida species (Candida species): yes

Structure (SMILES): NC[C@H]1O[C@H](O[C@H]2[C@H](O)[C@@H](O[C@H]3O[C@H](CO)[C@@H](O)[C@H](N)[C@H]3O)[C@H](N)C[C@@H]2N)[C@H](N)C[C@@H]1O [Tobramycin]
- efficacy against Clostridium difficile (Clostridium difficile): no
- efficacy against Bacteroides fragilis (Bacteroides fragilis): no
- efficacy against Citrobacter freundii (Citrobacter freundii): yes
- efficacy against Bordetella pertussis (Bordetella pertussis): no
- efficacy against Shigella dysenteriae (Shigella dysenteriae): yes
- efficacy against Citrobacter diversus (Citrobacter diversus): yes
- efficacy against Diphtheroids (Diphtheroids): no
- efficacy against Mycoplasma pneumoniae (Mycoplasma pneumoniae): no
- efficacy against Acinetobacter lwoffii (Acinetobacter lwoffii): no
- efficacy against Chlamydia pneumoniae (Chlamydia pneumoniae): no
- efficacy against Shigella boydii (Shigella boydii): yes
- efficacy against Haemophilus influenzae (Haemophilus influenzae): yes
- efficacy against Clostridium perfringens (Clostridium perfringens): no
- efficacy against Vibrio cholerae (Vibrio cholerae): no
- efficacy against Shigella flexneri (Shigella flexneri): yes
- efficacy against Methicillin resistant staph aureus (MRSA) [2]: no
- efficacy against Legionella pneumophila (Legionella pneumophila): no
- efficacy against Enterococcus faecalis (Enterococcus faecalis): no
- efficacy against Staphylococcus epidermidis [3]: no
- efficacy against Streptococcus agalactiae (Streptococcus agalactiae): no
- efficacy against Streptococcus pneumoniae (Streptococcus pneumoniae): no
- efficacy against Klebsiella oxytoca (Klebsiella oxytoca): yes
- efficacy against Neisseria gonorrhoeae (Neisseria gonorrhoeae): no
- efficacy against Acinetobacter baumannii (Acinetobacter baumannii): no
- efficacy against Klebsiella (Calymmatobacterium) granulomatis [4]: yes
- efficacy against Corynebacterium jeikeium (Corynebacterium jeikeium): no
- efficacy against Enterococcus faecium (Enterococcus faecium): no
- efficacy against Staphylococcus aureus (MSSA) [5]: no
- efficacy against Peptostreptococcus (Peptostreptococcus): no
- efficacy against Proteus mirabilis (Proteus mirabilis): yes
- efficacy against Enterobacter aerogenes (Enterobacter aerogenes): yes
- efficacy against Acinetobacter calcoaceticus [6]: no
- efficacy against Klebsiella pneumoniae (Klebsiella pneumoniae): yes
- efficacy against Serratia marcescens (Serratia marcescens): yes
- efficacy against Escherichia coli (Escherichia coli): yes
- efficacy against Streptococcus pyogenes (Streptococcus pyogenes): no
- efficacy against Moraxella catarrhalis (Moraxella catarrhalis): yes
- efficacy against Pseudomonas fluorescens (Pseudomonas fluorescens): yes
- efficacy against Pseudomonas aeruginosa (Pseudomonas aeruginosa): yes
- efficacy against Enterobacter sakazakii (Enterobacter sakazakii): yes
- efficacy against Proteus vulgaris (Proteus vulgaris): yes
- efficacy against Viridans group streptococci [7]: no
- efficacy against Haemophilus ducreyi (Haemophilus ducreyi): yes
- efficacy against Chlamydia psittaci (Chlamydia psittaci): no
- efficacy against Enterobacter cloacae (Enterobacter cloacae): yes
- efficacy against Campylobacter jejuni (Campylobacter jejuni): yes
- efficacy against Yersinia pestis (Yersinia pestis): yes
- efficacy against Corynebacterium urealyticum [8]: no
- efficacy against Shigella sonnei (Shigella sonnei): yes
- efficacy against Chlamydia trachomatis (Chlamydia trachomatis): no
- efficacy against Neisseria meningitidis (Neisseria meningitidis): no
